Laboratory results taken from patent US6384076B1, “Inhibition or erythrocyte sickling by N-L-alpha-aspartyl-L-phenylalanine 1-methyl ester” (Oklahoma Medical Research Foundation, priority 1998, dated 2002).
Where “and” joins values, the source holds several entries; their conditions need not be identical. Equal entries are not always repeated. Peptide text beside a SMILES is read from it.

What was measured:
[1] = test system: osteo- and mixed osteo- and rheumatoid arthritis; details: clinical trial, Edmundson and Manion 1998; cited from earlier work
whole blood viscosity [2] = test: Blood viscosity by RBC pipette method before and after blinded oral APM; assay type: in vivo, human; details: for Blood viscosity change after treatment: baseline vs 120 minutes post-treatment
Excerpt: Blood samples were obtained from ten patients having homozygous HbSS disease or heterozygous HbSC disease before and after a blinded administration of APM at 1.5 (low dosage), 3 (medium dosage), or 6 (high dosage) milligrams per kilogram body weight. The patients' characteristics are given in the first ten entries in Table II.
Viscosity determinations using the RBC pipette method of Wright and Jenkins (Wright, D. J. and Jenkins, Jr., D. E. 1970. Blood 36:516-522) were made on each blinded whole blood sample before and 120 minutes after blinded administration of APM. Each measurement was made in triplicate. Control viscosity measurements using saline and water for each patient and normal whole blood sample were also made to validate the viscosity measurements.
(§1) To measure viscosity, 1.01 cc of the test fluid, i.e., either water, saline or blood, was drawn into an RBC pipette using a 50 cc syringe attached via rubber tubing to the top of the RBC pipette. Using a constant pressure of 20 mm by maintaining the pressure with visual feedback and hand pressure, the amount of time it took for the test fluid to drip out of the RBC pipette was measured with a stopwatch. Each measurement was made in triplicate.

whole blood viscosity [3] = test: Blood viscosity after additional in vitro APM on samples taken post in vivo treatment; assay type: cell-based, human; details: 1 or 2 milligrams/milliliter APM added in vitro to 480 minute post-treatment samples
Method: as §1
Samples with high viscosity readings at 480 minute or 1,440 minute posttreatment, chosen to represent patients with a validated response to APM who were returning to normal, were divided and treated with an additional 0, 1, or 2 milligrams/milliliter APM in vitro, in an effort to measure whether a second inducible sickling response was possible and if a second response to the in vitro APM addition could be observed. The viscosity of each sample at 480 minutes post-treatment was measured.

sickling RBCs [4] = test: Reduction of sickle cells in vivo: metabisulfite sickling test on blood of one patient before and 1 hour after oral APM; set-up: species or system human; details: blood 1 hour after
Method: During Week 1 of the study, blood samples were taken from the patient before and one hour after an orally administered dose of 60 milligrams APM. During Week 2, blood samples were taken from the patient before and one hour after an orally administered dose of 160 milligrams APM. The blood samples and slides were prepared according to the methods given in Example 1, and cell counts were taken at 0, 30, and 120 minutes post-induction.

sickling RBCs [5] = test: Blinded APM dose-response study of patients with sickle cell disorders (sickle cell counts); assay type: in vivo, human; details: for Dose-response of antisickling effect: 1.5, 3, 6 mg/kg body weight
Method: A blinded study was conducted with 23 patients diagnosed with sickle cell disorders. Blood samples were obtained from the 23 patients having sickle cell disease (homozygous HgBss), sickle cell trait (heterozygous Hgbsc), or homozygous HbS with a β-thalassemia chain (“sbthal”) before and after a blinded administration of APM at 1.5 (low dosage), 3 (medium dosage), or 6 (high dosage) milligrams per kilogram body weight.
Blood was drawn before and 120 minutes after treatment with 0, 1.5, 3, or 6 milligrams APM per kilogram body weight in a blinded fashion from the ten patients into heparin tubes, stored in a refrigerator at approximately 10° C. and routinely tested within 36 hours of collection.
Normal blood devoid of abnormal hemoglobin was used as a control. For each heparinized patient blood sample and the normal blood control, experimental samples were prepared containing 0.25 milliliters of normal saline and 0.25 milliliters of blood. Following the metabisulfite induction as given in Example 1, the number of sickle cells relative to the number of normal cells was obtained at 0, 30, 60, 120, 240, 480, and 1440 minutes post-induction.

RBCs containing HbS = test: Metabisulfite sickling test on heparinized patient blood treated with APM in vitro; assay type: cell-based, human; details: for Number of Cells Sickled per Hundred Counted: individual patients 1-12, baseline subtracted; for Number of Cells Sickled per Hundred Counted, Avg: average over 0, 30, 120 min per patient 1-12; for Number of Cells Sickled per Hundred Counted, Mean: mean of the twelve patients' averages (control 17.7)
Method: Blood was drawn from twelve patients of pediatric age who were being treated by phlebotomy and exchange transfusion for their sickling disorders. Blood samples from each patient were drawn directly into heparin tubes, stored in a refrigerator at approximately 10° C., and routinely tested within 36 hours of collection. Some samples were rechecked or reanalyzed within a week of collection, and the effects on sickle hemoglobin was still present with counted values similar to those obtained within 36 hours.
Normal blood devoid of HbS was used as a control. For each heparinized patient blood sample and the normal blood control, three experimental samples were prepared containing 0.25 milliliters of normal saline and 0.25 milliliters of blood and then treated as follows: (1) one was left untreated; one was treated with 1 milligram APM; and (3) one was treated with 2 milligrams APM. All experimental samples were stored in a refrigerator at approximately 10° C. for one hour prior to testing to allow time for the APM to be absorbed by the RBCs.
Using metabisulfite to reduce HbS to the deoxy form (Daland, G. A. and Castle, W. B. 1948. J Lab Clin Med 33:1082-1088; Nelson, D. A. In Todd-Sanford-Davidsohn Clinical Diagnosis by Laboratory Methods, J. B. Henry, ed. (W. B. Saunders Co., Philadelphia, 1979, vol. 1, p. 1020), a sickling test was run on each experimental sample. The sickling inducing agent was prepared fresh daily as follows: 10 milligrams metabisulfite in 1 milliliter isotonic saline. Multiple test slides were prepared for each experimental sample by adding 3 drops of the metabisulfite inducing agent and 1 drop of the experimental sample onto the surface of a glass slide, placing a coverslip over the sample, and sealing the coverslip with a petroleum jelly bead to prevent oxygen from entering the sample. Photomicrographs were taken with a phase contrast microscope at 400 magnification at 0, 30, and 120 minutes after slide preparation, and the results were obtained from the photomicrographs as the number of sickle cells per 100 cells counted.
To account for natural or non-induced sickling of the experimental samples, a baseline sickling count was obtained for each heparinized patient blood sample and the normal blood control. Slides were prepared by adding 3 drops of saline and 1 drop of the experimental sample onto the surface of a glass slide, placing a coverslip over the sample, and sealing the coverslip with a petroleum jelly bead to prevent oxygen from entering the sample. Photomicrographs were taken with a phase contrast microscope at 400 magnification at 0, 30, and 120 minutes after slide preparation, and the results were obtained from the photomicrographs as the number of sickle cells per 100 cells counted. This number of sickle cells per 100 cells counted was considered the baseline sickling count and was subtracted from the cell counts obtained with the metabisulfite induced samples.
A timeline for APM effect was made by repeating the experiment given above with cell counts obtained at 0, 1, 2, 3, 4, 5, 24, and 27 hours post-metabisulfite induction. The results are presented in FIG. 2 as combined APM timelines for each treatment method. The antisickling effect of APM in vitro lasted for at least 27 hours. During this period, the rate of sickling in the APM treated
The effect of calcium (Ca^2+) on the effectiveness of APM was examined by repeating the experiment above with the addition of EDTA, a Ca^2+chelating agent, to normal blood control and the patient experimental samples prior to testing. FIG. 3 illustrates the comparative heparin versus EDTA treatment of the blood. […] Moreover, the addition of a calcium salt to APM formulations useful for antisickling treatment as well as in vitro applications is desirable.

COC(=O)[C@H](Cc1ccccc1)NC(=O)[C@@H](N)CC(=O)O [APM, N-L-alpha-aspartyl-L-phenylalanine 1-methyl ester] (H-Asp-Phe-OMe)
Pain and inflammation of arthritis [1]: alleviate the pain and inflammation | Blood viscosity change after treatment (whole blood viscosity [2]; HgBss patients, 1.5, 3 or 6 mg/kg): blood viscosity decreased | No. of Patients with decreasing viscosity (whole blood viscosity [2]; HgBss, of five patients): 5 | Blood viscosity change after treatment (whole blood viscosity [2]; Hgbsc patients): increased viscosity | No. of Patients with increasing viscosity (whole blood viscosity [2]; Hgbsc, of three patients): 3 | Blood viscosity change after treatment (whole blood viscosity [2]; sbthal patients): blood viscosity also decreased | No. of Patients with decreasing viscosity (whole blood viscosity [2]; sbthal, of two patients): 2 | Viscosity of blood samples compared to the control (whole blood viscosity [3]; HgBss patients): decreased over time | Viscosity of blood samples compared to the control (whole blood viscosity [3]; Hgbsc patients): increase in viscosity | Number of sickling RBCs relative to the control (sickling RBCs [4]; 60 milligrams APM orally, patient with sickle cell anemia): decrease in the number of sickling RBCs | Antisickling effect versus 60 milligram dosage (sickling RBCs [4]; 160 milligrams APM orally, same patient): proportionately larger | Dose-response of antisickling effect (sickling RBCs [5]; HgBss and sbthal patients): significant dose-response effect | Dose-response of antisickling effect (sickling RBCs [5]; Hgbsc patients): No dose-response effect | Effect on HbSC blood (sickling RBCs [5]; in vivo or in vitro, sickle cell number and viscosity): not affected | Number of sickling RBCs relative to the control (sickling RBCs [5]; lower dosage 1.5 mg/kg body weight): decrease in the number of sickling RBCs | Time to reduction in number of sickle cells relative to normal cells after administration (sickling RBCs [5]; patients with sickle cell family diseases, effective amount): within one hour | Number of Cells Sickled per Hundred Counted (RBCs containing HbS; APM 1 mg in 0.25 ml blood + 0.25 ml saline, 0 min after slide preparation): 1.5 per Hundred Counted (2×) and 1.0 per Hundred Counted and 0.5 per Hundred Counted and 0.0 per Hundred Counted and 2.5 per Hundred Counted (2×) and 2.0 per Hundred Counted (2×) and 9.5 per Hundred Counted (2×) and −1.0 per Hundred Counted | Number of Cells Sickled per Hundred Counted (RBCs containing HbS; APM 1 mg, 30 min after slide preparation): 2.5 per Hundred Counted and 2.0 per Hundred Counted and −1.0 per Hundred Counted and 6.0 per Hundred Counted and 1.5 per Hundred Counted and 3.5 per Hundred Counted (2×) and 3.0 per Hundred Counted and 10.5 per Hundred Counted and 9.0 per Hundred Counted and 4.5 per Hundred Counted and −0.5 per Hundred Counted | Number of Cells Sickled per Hundred Counted (RBCs containing HbS; APM 1 mg, 120 min after slide preparation): 1.5 per Hundred Counted and 3.5 per Hundred Counted (2×) and 1.0 per Hundred Counted and 21.0 per Hundred Counted and 2.5 per Hundred Counted and 3.0 per Hundred Counted and 12.0 per Hundred Counted and 11.0 per Hundred Counted and 4.0 per Hundred Counted and 0.5 per Hundred Counted | Number of Cells Sickled per Hundred Counted, Avg (RBCs containing HbS; APM 1 mg): 1.8 per Hundred Counted and 2.2 per Hundred Counted (2×) and 0.2 per Hundred Counted and 9.0 per Hundred Counted and 2.8 per Hundred Counted (2×) and 10.7 per Hundred Counted and 9.8 per Hundred Counted and 3.2 per Hundred Counted (2×) and −0.3 per Hundred Counted | Number of Cells Sickled per Hundred Counted, Mean (RBCs containing HbS; APM 1 mg): 4.0 per Hundred Counted | Number of Cells Sickled per Hundred Counted (RBCs containing HbS; APM 2 mg in 0.25 ml blood + 0.25 ml saline, 0 min after slide preparation): 0.5 per Hundred Counted (2×) and 0.0 per Hundred Counted (2×) and 2.0 per Hundred Counted (2×) and 2.5 per Hundred Counted and 1.0 per Hundred Counted (2×) and 6.5 per Hundred Counted and 8.5 per Hundred Counted and −5.5 per Hundred Counted | Number of Cells Sickled per Hundred Counted (RBCs containing HbS; APM 2 mg, 30 min after slide preparation): 0.5 per Hundred Counted (2×) and 1.0 per Hundred Counted and −0.5 per Hundred Counted and 6.0 per Hundred Counted and 2.0 per Hundred Counted (3×) and 1.5 per Hundred Counted and 5.0 per Hundred Counted and 8.5 per Hundred Counted and −6.5 per Hundred Counted | Number of Cells Sickled per Hundred Counted (RBCs containing HbS; APM 2 mg, 120 min after slide preparation): −0.5 per Hundred Counted (2×) and 0.5 per Hundred Counted and 19.0 per Hundred Counted and 2.5 per Hundred Counted and 5.0 per Hundred Counted and 2.0 per Hundred Counted (2×) and 9.5 per Hundred Counted and 1.0 per Hundred Counted and −6.5 per Hundred Counted | Number of Cells Sickled per Hundred Counted, Avg (RBCs containing HbS; APM 2 mg): 0.0 per Hundred Counted and 0.5 per Hundred Counted and −0.3 per Hundred Counted and 9.0 per Hundred Counted and 2.3 per Hundred Counted and 1.3 per Hundred Counted and 3.0 per Hundred Counted and 4.5 per Hundred Counted and 8.8 per Hundred Counted and 1.2 per Hundred Counted and 0.8 per Hundred Counted and −6.2 per Hundred Counted | Number of Cells Sickled per Hundred Counted, Mean (RBCs containing HbS; APM 2 mg): 2.1 per Hundred Counted | Antisickling effect of APM with addition of EDTA (RBCs containing HbS; EDTA (Ca2+ chelating agent) added prior to testing): completely eliminated the antisickling effect | Sickle cells after metabisulfite versus controls (RBCs containing HbS; all twelve patients, 1 and 2 mg APM, ANOVA p<0.00004): fewer sickle cells than the controls | Duration of antisickling effect in vitro (RBCs containing HbS; counts at 0-27 hours post-metabisulfite induction): at least 27 hours | Passage of APM across the RBC membrane (RBCs containing HbS; in the absence of Ca2+ (EDTA)): does not pass the RBC membrane | Rate of sickling in APM treated cells (RBCs containing HbS; over 27 hours, versus controls): significantly less than that in the controls
